{"source": "patent US7544768B2", "about": "“Peptides for inducing apoptosis in tumor cells” (Deutsches Krebsforschungszentrum Stiflung des Offentlichen …, priority 2002, dated 2009)", "assay_in_all_cases": "Colony formation assay, transfected expression vectors", "type_in_all_cases": "cell-based", "key": {"MeWo (melanoma cells)": {"test_system": "MeWo (melanoma cells)", "settings": "nucleic acid coding for peptide transfected", "description": "(§1) The nucleic acids coding for the peptides of TABLE 3 were cloned into mammalian expression vectors and transfected into different cells to observe their further growth. By using a HIS-tag it was possible to verify that all peptide sequences could be expressed."}, "[1]": {"test_system": "livin-negative C33a cells", "settings": "nucleic acid coding for peptide transfected; FIG. 3", "description": "(§2) Expression vectors bearing the nucleic acid coding for peptide number 75 (corresponds to SEQ ID No: 127 or number 41 of TABLE 2) or bearing the nucleic acid coding for control peptide were introduced in HeLa cells and livin-negative C33a cells. The cells were selected for stable transfectants.\nas §1"}, "[2]": {"test_system": "livin-expressing HeLa cells", "settings": "nucleic acid coding for peptide transfected; FIG. 3", "description": "as §2, §1"}}}
{"substance": "GSRCIRRRISILFFVFRVLRSRRVLRSAEIYES* (randomized peptide that bind to particular IAPs) [compound 75]", "values": [{"measurement": "growth of MeWo (melanoma cells)", "setting": "MeWo (melanoma cells)", "result": "blocked the growth"}, {"measurement": "growth of livin-negative C33a cells", "setting": "[1]", "result": "not affected"}, {"measurement": "growth of livin-expressing HeLa cells", "setting": "[2]", "result": "blocked the growth"}]}
